In patent US4963580A, “Substituted 5-hydroxy-2,3-dihydrobenzothiophenes as inhibitors of leukotriene biosynthesis” (Merck & Co., Inc., priority 1989, dated 1990):

Columns and labels:
[1] = system: production of leukotriene B4 (LTB4) in isolated rat polymorphonuclear leukocytes (PMN); experiment: inhibition of LTB4 production in isolated rat polymorphonuclear leukocytes (Rat PMN); assay type: cell-based, rat (male Sprague Dawley); conditions: Leukocyte, 5 min, LTB4 by RIA, A23187 10 μM, 37° C., read-out: Polymorphonuclear Leucocyte (PMN) Activity, Rat PMN IC50
Procedure: (§1) The assay is conducted as follows:
B. Rat Peritoneal Polymorphonuclear leukocytes (PMN). Male Sprague Dawley rats were purchased from Taconic Farms, Germantown, NY. The animals were maintained on standard pellet diet and water ad lib. Elicited PMN were prepared from peritoneal exudates as follows: 8 ml of 12% sodium caseinate was injected intraperitoneally into male rats. After 18-20 hours, the rats were killed with CO2 and the peritoneal cavities were lavaged with Eagle's MEM (pH 7.7) without NaHCO3 but containing Earle's salts, L-glutamine, and 30 mM HEPES. The PMN were isolated by centrifugation, washed with MEM, filtered through lens paper to remove clumps, and adjusted to a concentration of 1×10^7 cells/ml.
(§2) C. Generation and Radiommumoassay of LTB4. PMNs (0.5 mL; 2.5×10^5 cells) are placed in plastic tubes and incubated (37° C., 2 min) with test compounds at the desired concentration or vehicle control (DMSO, final concentration 0.2%). The synthesis of LTB4 is initiated by the addition of calcium inophore A23187 (final concentration 10 μM) or vehicle on control samples and allowed to proceed for 5 minutes at 37° C. The reactions are then terminated by the addition of cold methanol (0.25 mL) and samples of the entire PMN reaction mixture are removed for radiommunoassay of LTB4.
(§3) Samples (50 μl ) of authentic LTB4 of known concentration in radiommunoassay buffer (RIA) buffer (potassium phosphate 1 mM; disodium EDTA 0.1 mM; Thimerosal 0.025 mM; gelatin 0.1%, pH 7.3) or PMN reaction mixture diluted 1:1 with RIA buffer are added to reaction tubes.
(§4) Thereafter [3H]-LTB4 (10 nCu in 100 μl RIA buffer) and LTB4 antiserum (100 μL of a 1:3000 dilution in RIA buffer) are added and the tubes vortexed. Reactants are allowed to equilibrate by incubation overnight at 4° C. To separate antibody-bound from free LTB4, aliquots (50 μL) of activated charcoal (3% activated charcoal in RIA buffer containing 0.25% Dextran T-70) were added, the tubes vortexed, and allowed to stand at room temperature for 10 minutes prior to centrifugation (1500×g; 10 min; 4° C). The supernatents containing antibody-bound LTB4 are decanted into vials and Aquasol 2 (4 mL) was added. Radioactivity is quantified by liquid scintillation spectrometry. […] The specificity of the antiserium and the sensitivity of the procedure have been described in detail elsewhere. (Rokach, J.; Hayes, E. C.; Griard, Y.; Lombardo. D. L.; Maycock, A. L.; Rosenthal, A. S.; Young, R. N.; Zamboni, R.; Zweerink, H. J. Prostaglandins Leukotrienes and Medicine 1984, 13, 21). The amount of LTB4 produced in test and control approx. 20ng/10^6cells) samples are then calculated. Inhibitory dose response curves are constructed using a four parameter algorithm and from these the IC50 values are determined.

[2] = system: production of leukotriene B4 (LTB4) in isolated human polymorphonuclear leukocytes (PMN); experiment: inhibition of LTB4 production in isolated human polymorphonuclear leukocytes (Human PMN); assay type: cell-based; conditions: Leukocyte, 5 min, LTB4 by RIA, A23187 10 μM, 37° C., read-out: Polymorphonuclear Leucocyte (PMN) Activity, Human PMN IC50
Procedure: as §1
A. Preparation of Human PMN. Human blood is obtained by antecubital venepuncture from consenting volunteers who denied having taken medication within the previous 7 days. The blood is immediately added to 10% (v/v) trisodium citrate (0.13 M) or 5% (v/v) sodium heparin (1000 IU/mL). PMNs are isolated from anticoagulated blood by dextran sedimentation and centrifugation through Ficoll Hypaque (specific gravity 1.077), essentially as described by Boyum. (Boyum, A., Scand. J. Clin. Lab. Invest. 1968, 21 (Supp 97), 77). Contaminating erthrocytes are removed by lysis following exposure to ammonium chloride (0.16 M) in Tris buffer (pH 7.65), and the PMNs resuspended at 5×10^5 cells/mL in HEPES (15 mM) buffered Hanks balanced salt solution containing Ca^2+ (1.4 mM) and Mg^2+ (0.7 mM), pH 7.4. Viability is assessed by Trypan blue exclusion and is typically greater than 98%.
as §2, §3
as §4, with “(Rokach, J.; Hayes, E. C.; Griard, Y.; Lombardo. D. L.; Maycock, A. L.; Rosenthal, A. S.; Young, R. N.; Zamboni, R.; Zweerink, H. J. Prostaglandins Leukotrienes and Medicine 1984, 13, 21).” left out

[3] = system: leukotriene biosynthesis in human polymorphonuclear leukocytes; conditions: known inhibitors of leukotriene biosynthesis; cited from earlier work
[4] = system: production of leukotriene B4 (LTB4) in polymorphonuclear leukocytes (PMN); experiment: LTB4 inhibition in the above described in vitro test (PMN, species not stated); assay type: cell-based; conditions: Leukocyte, standard compounds

Row | IC50 [1] | IC50 [2] | IC50 [4] | Compound | activity in human polymorphonuclear leukocytes assay [3]
1 | 887 nM | 2260 nM |  | C=CCc1c(O)ccc2c1CCS2 [R4 = --CH2 CH= CH2, R6 = H, 4-(propen-3-yl)-5-hydroxy-2,3-dihydrobenzothiophene] | 
2 | 5230 nM |  |  | Oc1ccc2c(c1)CCS2 [R4 = H, R6 = H, 5-Hydroxy-2,3-dihydrobenzothiophene] | 
3 |  |  | 9250 nM | O=C1CCN(c2ccccc2)N1 [phenidone] | active in this assay

Continued, compound first:

Row | Compound | IC50 [1] | IC50 [2] | IC50 [4] | activity in human polymorphonuclear leukocytes assay [3]
4 | CCCc1cc2c(cc1O)CCS2 [R4 = H, R6 = --C3 H8, 6-propyl-2,3-dihydro-5-hydroxybenzothiophene] | 211 nM | 326 nM |  | 
5 | CC(C)(C)c1cc2c(cc1O)CCS2 [R4 = H, R6 = --C4 H10, 6-t-butyl-2,3-dihydro-5-hydroxybenzothiophene] | 207 nM | 142 nM |  | 
6 | C=CCc1cc2c(cc1O)CCS2 [R4 = H, R6 = --CH2 CH= CH2, 6-Allyl-5-hydroxy-2,3-dihydrobenzothiophene] | 190 nM | 319 nM |  | 
7 | CC(Cc1ccc(O)c(O)c1)C(C)Cc1ccc(O)c(O)c1 (stereo not shown) [nordihydroguaiacetic acid, nordihydroguaiaretic acid] |  |  | 86 nM | active in this assay
